| SMILES | melting point [°C] |
| --- | --- |
| CCCCc1nc2c(N)nc(C)c(C)c2n1CCCCNC(=O)c1ccccc1 | 128 to 129 |
| C(=C\c1ccc2oc3ccc(/C=C/c4ccccc4)cc3c2c1)/c1ccccc1 | 226 |
| Cc1ccc(-c2cc(N)nn2C(=O)OC(C)(C)C)cc1 | 147 |
| COc1ccc(/C(=C/C=C/C(=O)Oc2ccc([N+](=O)[O-])cc2)C(C)C)cc1 | 95 to 96.5 |
| CCOC(=O)c1c(C(F)(F)F)nc(C(F)F)c(C(=O)OC)c1CS(C)(=O)=O | 110 to 112 |
| O=c1[nH]c(=S)[nH]c(-c2ccccc2)c1Cc1c(O)ccc2ccccc12 | 253 to 255 |
| COc1ccc2c(c1O)CC(C(=O)O)N(C(=O)N(C)c1ccccc1)C2 (racemic) | 235 to 255 |
| O=C(OC(Cn1ccnc1)CS(=O)(=O)c1ccccc1)c1ccc(Cl)cc1Cl (centres undefined) | 106 to 109 |
| O=C(Nc1ccc(-n2nc(C(F)(F)F)cc2C(F)(F)F)cc1)c1cccc(Br)c1 | 158 to 160 |
| CC(C)(C)c1nc(Cl)n(-c2c(Cl)cc(Cl)cc2Cl)n1 | 98 to 98.5 |
| O=C1Nc2ccccc2OC1c1ccccc1 (centres undefined) | 146 |
| COc1cc(C(=O)NC2CC(C)(C)N(C)C(C)(C)C2)ccc1-c1nc2cc(Cl)c(Cl)cc2[nH]1 | 285 to 286 |
| O=C(NC1CCCCC1)OC1CCCCC1 | 77 to 78 |
| C[C@H](CC#CC(C)(C)O)[C@H]1CCC[C@H]2[C@@H](O)CCC[C@]12C | 134 to 135 |
| CCC1Nc2c(C)cccc2-n2cccc21 (centres undefined) | 65 to 68 |
| O=C(NCCc1ccc(O)c(F)c1)OCc1ccccc1 | 89 to 90 |
| O=C(O)Cc1ccc(OCCNC(=O)C2Cc3ccccc3N2S(=O)(=O)c2ccc(-c3cc(C(F)(F)F)ccc3Cl)cc2)cc1F (centres undefined) | 105 |
| O=CC=C(Cl)c1cccc([N+](=O)[O-])c1 | 83 |
| COc1cc(Nc2nccc(-c3cccc(NC(=O)c4cccnc4)c3)n2)cc(OC)c1OC | 140 to 143 |
| COc1ccc(-c2cnc(-c3ccncc3)o2)cc1 | 105 to 107 |
| O=c1cc(CBr)c2cc(O)ccc2o1 | 198 to 200 |
| CSc1nc(P(=O)(C2CCCCC2)C2CCCCC2)cc(P(=O)(C2CCCCC2)C2CCCCC2)n1 | 197 to 198 |
| O=C(Cn1c(=O)oc2ccc(Cl)cc21)c1ccc(C(F)(F)F)cc1 | 188 to 189 |
| CNc1cc(F)ccc1C(=O)Cc1nnn[nH]1 | 214 to 216 |
| Cc1cccc(C(=O)Nc2ccc(C(=O)N3Cc4ccccc4Cc4ccccc43)cc2)c1C | 138 to 142 |

| SMILES | melting point [°C] |
| --- | --- |
| C#CCOc1cc(C=O)cc(Cl)c1OCC#C | 64 to 65 |
| Cc1c(-c2ccccc2)c(N2CC[C@H](N(C)C)C2)c2oc(-c3ccccc3O)nc2c1C#N | 159 to 162 |
| CN1CCN(CCSc2nc3ccccc3[nH]2)CC1 | 93 to 95 |
| Nc1cc(C(=O)CCC(=O)O)ccc1Br | 169 to 171 |
| CCCCCc1ccc(C(=O)NC2N=C(c3ccccc3)c3ccccc3NC2=O)cc1 (racemic) | 203 to 205 |
| COc1ccc2c(c1)C=C(c1ccc3c(c1)NC(=O)CO3)C(c1ccccc1)O2 (centres undefined) | 200 |
| COC1=C(N=O)C(=O)NC1=Cc1ccccc1 | 172 |
| CCc1nn2c(-c3ccc(OC)cc3Cl)cccc2c1N(CCF)CCOC | 45.8 to 52.8 |
| COc1ccc(Cl)cc1-c1c(N)c(=O)[nH]c2cc(C(F)(F)F)c(Cl)cc12 | 252 to 253 |
| Cc1oc(-c2ccccc2)nc1COc1ccccc1CCl | 103 to 104 |
| Cc1ccc(NC(=O)c2ccc(CBr)c(C(F)(F)F)c2)cc1Br | 153 to 154 |
| CCc1nc2ccc(Cl)cc2c(=O)n1CCCn1ccnc1 | 147 to 149 |
| COC(=O)c1ccc(NC(=O)c2cc(C(C)C)c(C(C)C)s2)cn1 | 207 to 208 |
| O=C(O)c1ccccc1NCCCn1c2ccc(O)cc2c2c3c(c(-c4ccccc4Cl)cc21)C(=O)NC3=O | 261 to 263 |
| COc1nc2ccc3c(c2o1)C(CCNC(C)=O)CC3 (centres undefined) | 126 to 128 |
| COC(=O)c1ccc(OC2=C(Oc3ccc(C(=O)OC)cc3)C(F)(F)C(F)(F)C2(F)F)cc1 | 67 |
| O=S1(=O)N(CCN2CCN(c3ccc(F)cc3)CC2)c2cccc3c2N1CCC3 | 118 |
| CC(Nc1nnc(-c2ccsc2)c2ccccc12)c1ccccc1 (centres undefined) | 144 to 146 |
| O=C(O)c1cnc2n(c1=O)CCCCC2 | 117 to 119 |
| COc1nc(N)nc(OCC(F)(F)F)n1 | 78 to 80 |
| N#Cc1c(N2CCc3ccccc3CC2)nc(NCCOc2ccccc2)[nH]c1=O | > 200 |
| Nc1ccc2c(c1)C(c1ccccc1Cl)=CCC(=O)N2 | 192 |
| CC(=O)Oc1ccc(Cl)cc1C(=O)O | 146 to 148 |
| CCCc1nccn1C(C)COCC1=C(C(=O)OCC)C(c2ccccc2Cl)C2=C(CCCC2=O)N1 (centres undefined) | 127 to 131 |
| Clc1nc2cccccc-2n1 | 162 to 163 |

| SMILES | melting point [°C] |
| --- | --- |
| COc1cc2c(cc1Cl)C(O[Si](C)(C)C)(c1ccccc1Cl)C(=O)N2 (centres undefined) | 211 to 212 |
| COC(=O)Cc1ccc2oc(-c3ccc(OC)c(OC)c3)c(SC)c2c1 | 91 |
| O=C(Oc1ccccc1)c1ccc(C(=O)Oc2ccccc2)c(C(=O)Oc2ccccc2)c1 | 156 to 158 |
| CC(C)Oc1ccc(-n2c(CC(=O)O)c(C(=O)O)c3cc(Oc4ncccc4C(=O)O)ccc32)cc1 | 212 to 214 |
| CC(=O)C1=C(O)C(=C(C)Nc2ccc(OC(=O)NCc3ccccc3)cc2)C(=O)OC1=O | 195 to 197 |
| CC(=O)Nc1cccc(-c2nc3ncccc3o2)c1 | 202 |
| ClC(Cl)(Oc1ccccc1)Oc1ccccc1 | 42 to 44 |
| COc1ccc(Oc2c(OC)cc(N)c3nccc(C)c23)cc1 | 185 to 187 |
| CS(=O)(=O)c1cc([N+](=O)[O-])ccc1OC(F)(F)F | 102 to 104 |
| O=C(O)Cc1cc(F)cc(Cc2nc3c(F)c(F)cc(F)c3s2)c1 | 139 to 142 |
| CCOC(=O)c1nnc2n1-c1sc(CC)cc1C(c1ccccc1Cl)=NC2 | 138 to 140 |
| CCC(CC)(CCC#N)C(NC(=O)c1ccc(Cl)cc1)NC(=NC#N)Nc1cccnc1 (centres undefined) | 150 to 152 |
| CCOC(=O)c1cnn(-c2ccccn2)c1S(N)(=O)=O | 73 to 76 |
| CCCCC1c2cc(NC(=O)CC(C)(C)C)c(C)c(C)c2OC1(C)C (centres undefined) | 129 to 130 |
| COc1cc(C=CC2=CC(=O)C(C)(C)O2)cc(OC)c1OC | 149 to 150 |
| O=C(C=Cc1ccc(CNCC2CCCC2)cc1)Nc1ccc(-c2ccc(Cl)cc2)cc1 | 209 to 210 |
| CCOC(=O)c1cc(CCCOCCCCCCNCC(O)c2cc(Cl)c(N)c(Cl)c2)ccn1 (centres undefined) | 68 to 70 |
| CC(=O)Nc1cc2c(cc1C#N)[C@@H](N1CCCC1)[C@H](O)C(C)(C)O2 (relative stereo) | 175 to 176 |
| COC(=O)CCNC(=O)C(=Cc1ccccc1)CSC(=O)c1ccccc1 | 66 |
| CCCCc1nn2c(c1Cc1ccc(-c3ccccc3)c(C(=O)O)c1)CCCC2 | 162 |
| FC(F)(F)c1cccc(CNc2ncnc3ccccc23)c1 | 145 to 146 |
| COc1ccccc1NC(=O)Nc1nc(Nc2ccccc2-c2ccccc2)nc(N(CC(=O)O)Cc2ccc(F)cc2)n1 | 120 to 125 |
| CCOC(=O)c1c2ccc(CC(=O)NOCC(=O)N3CCCC3)ccc-2c(C(=O)OCC)c1N | 168 to 170 |
| Nc1cnn(CCO)c1N | 158 to 160 |
| CN(Cc1ccccc1)c1nc(N2CCC(N(C)C)CC2)nc2c(N3CCOCC3)ncnc12 | 122 |

| SMILES | melting point [°C] |
| --- | --- |
| CCc1cc(NC(=O)c2nnn(Cc3ccc(OC)cc3)n2)c(O)c(C(C)=O)c1 | 159 to 160 |
| Nc1c(Cl)cc(-c2nn(C3CCN(CCCC(F)(F)F)CC3)c(=O)o2)c2c1OCCO2 | 188 |
| CC(C)(C)OC(=O)NCCOc1noc2ccc(F)c(C#N)c12 | 116 to 117 |
| O=C(/C=C/c1c[nH]c2ccccc12)c1ccccc1 | 167 to 170 |
| CC1(C)CC(=O)c2c(Sc3ccccc3)sc(-c3cc[nH]n3)c2C1 | 231 to 234 |
| COc1cc(OC)cc(C2(O)C(=O)Nc3ccc(Cl)cc32)c1 (centres undefined) | 191 |
| O=C1C=C(c2c[nH]c3ccc(F)cc23)C(=O)N1 | 255 to 265 |
| C[C@@H](NC(=O)c1c[nH]c2ncc(-c3nn(C)c4cc(Cl)ccc34)nc12)C(=O)N1CC[C@H](F)C1 | 269 to 271 |
| O=C1N(C23CC4CC(CC(C4)C2)C3)CCC1(Cc1ccncc1)Cc1ccncc1 | 164 to 165 |
| CCc1cnc(CC(C#Cc2ccccc2)c2ccc(OC)c(OC3CCCC3)c2)o1 (racemic) | 94 to 96 |
| O=C1OC(=O)c2cc3c(cc21)OCO3 | 189 to 191 |
| COc1ccc(C(=O)Nc2c(C)c(C)c3c(c2C)C(c2ccc(C)cc2)C(C)(C)O3)cc1 (centres undefined) | 161 to 163 |
| CCOC(=O)C(Cc1ccc(C(=O)C(C)(C)C)cc1)Cc1ccc(C(=O)C(C)(C)C)cc1 | 60 to 63 |
| CCC(=S)NC[C@H]1CN(c2ccc(N3CCN(C#N)CC3)c(F)c2)C(=O)O1 | 182 to 184 |
| COc1ccc2[nH]c(SCc3nccc(N4CCCC4)c3Cl)nc2c1 | 131 to 133 |
| O=C(N[C@@H](CSC(=O)c1ccccc1)C(=O)N[C@@H](Cc1c[nH]c2ccccc12)C(=O)O)c1ccccc1 | 175 to 178 |
| CC(=O)Nc1ccc(-c2nc3ccccc3o2)cc1 | 214 to 215 |
| OCC1CC(O)C(n2c(NC3CC3)nc3cc(Cl)c(Cl)cc32)C1 (centres undefined) | 251 to 253 |
| c1ccc2c(CCc3ccncc3)c[nH]c2c1 | 154 to 158 |
| O=C1NC(CCN2CCC(C(=O)c3ccc(F)cc3)CC2)Nc2ccccc21 (centres undefined) | 153 |
| CCCCCCCCCCCCSCCOc1ccc(CCC(=O)O)cc1 | 68 to 69 |
| COc1ccc(-c2noc(C)c2-c2ccc(OC)cc2)cc1 | 95 to 99 |
| COCc1cn(-c2cccc(C(F)(F)F)c2)nc(C(=O)N(C)OC)c1=O | 157 to 159 |
| Cc1ccc(N2C(=O)NC(=O)C23CCNCC3)cc1 | 128 to 130 |

Source: a melting point compilation (Tetko et al.; mined from patent text by program, amines drawn as free bases though some values may be those of a salt)
